Test results reported in US11111237B2, “Bicyclic compound and use thereof” (SK BIOPHARMACEUTICALS CO., LTD., priority 2019, dated 2021).

Columns and labels:
[1] = molecular target: PRMT5-MEP50 enzyme complex (Homo sapiens (Human), UniProt O14744); assay: PRMT5 enzyme activity in vitro assay (methylation of histone H4R3, ELISA absorbance at 450 nm); type: biochemical; conditions: SAM, histone H4 peptide, room temperature 2 hours, 8 points from 10 μM to 0.128 nM
In short: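 Human PRMT5-MEP50 was prepared at 5 μg/mL with SAM at 2 μM and reacted 2 h at room temperature on plate-coated histone H4 (1-20) peptide. An 8-point 1:5 compound series ran from 10 μM to 0.128 nM. H4R3 methylation was detected by antibody/HRP ELISA at 450 nm to give IC50.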

[2] = tested on: SDMA levels in the tumor (U87MG tumor cells implanted subcutaneously); assay: Test for in vivo target inhibitory activity (SDMA levels in U87MG tumor); conditions: U87MG tumor in nude mice, oral 25 or 50 mg/kg 1-2 times daily for one week
Description: Test for in vivo target inhibitory activity
After U87MG tumor cells were implanted subcutaneously in nude mice, a PRMT5 inhibitor was administered orally (25 or 50 mg/kg) 1-2 times daily for one week, and then the degree to which SDMA levels in the tumor decreased was measured.
Reagents: Bradford's solution (Catalog No. 500-0006) was purchased from Bio-rad (USA). SDMA antibody (Catalog No. 13222s) was purchased from Cell Signaling Technology (USA). SmD3 antibody (Catalog No. ap12451a) was purchased from Abgent (USA), and secondary antibody (Catalog No. ab6721) and TMB substrate (Catalog No. ab210902) were purchased from Abcam (UK).
Experimental procedure: The tumor tissues transplanted into the mice were excised, the cells were lysed, and then quantified with Bradford's solution. 5-10 μg of protein per sample was diluted with carbonate-bicarbonate buffer and dispensed into a 96-well plate and reacted at room temperature for 2 hours. After washing with phosphate buffered saline (PBST) containing 0.05% Tween-20 3 times, 200 μL of PBST containing 5% bovine serum albumin (BSA-PBST) was added and reacted at room temperature for 2 hours. After washing with PBST 3 times, the SDMA antibody and the SmD3 antibody were diluted in BSA-PBST, and 100 μL of each was dispensed onto the plate and reacted at 4° C. overnight. After washing with PBST 3 times the next day, 100 μL of the secondary antibody diluted in BSA-PBST was added and reacted at room temperature for 1 hour. After washing with PBST 3 times, 100 μL of TMB substrate was added and reacted at room temperature for 10-20 minutes, and 100 μL of 1N sulfuric acid solution was added to terminate the reaction. Then, the absorbance at 450 nm was measured to calculate the degree of SDMA inhibition by the compound. (+++: more than 70%, ++: more than 30% and 70% or less, +: 30% or less)

Sequence of PRMT5-MEP50 enzyme complex (O14744 2-637): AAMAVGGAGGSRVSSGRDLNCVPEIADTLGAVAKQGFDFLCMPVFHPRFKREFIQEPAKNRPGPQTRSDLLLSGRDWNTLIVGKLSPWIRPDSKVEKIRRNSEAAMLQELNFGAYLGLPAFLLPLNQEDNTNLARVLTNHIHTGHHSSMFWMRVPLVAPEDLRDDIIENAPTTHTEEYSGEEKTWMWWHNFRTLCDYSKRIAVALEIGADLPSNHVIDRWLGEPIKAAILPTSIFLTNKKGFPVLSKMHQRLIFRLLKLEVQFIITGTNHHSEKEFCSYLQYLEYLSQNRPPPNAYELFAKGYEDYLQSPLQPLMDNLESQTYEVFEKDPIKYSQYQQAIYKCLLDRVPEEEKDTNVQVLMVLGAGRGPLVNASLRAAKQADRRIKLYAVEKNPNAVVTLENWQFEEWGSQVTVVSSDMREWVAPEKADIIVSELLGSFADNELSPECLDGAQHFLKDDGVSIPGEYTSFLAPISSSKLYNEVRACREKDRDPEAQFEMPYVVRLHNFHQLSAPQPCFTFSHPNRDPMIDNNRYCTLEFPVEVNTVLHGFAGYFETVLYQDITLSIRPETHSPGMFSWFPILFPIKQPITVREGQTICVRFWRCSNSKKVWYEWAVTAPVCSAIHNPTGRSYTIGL
Sequence of PRMT5-MEP50 enzyme complex (Q9BQA1 2-342 partner): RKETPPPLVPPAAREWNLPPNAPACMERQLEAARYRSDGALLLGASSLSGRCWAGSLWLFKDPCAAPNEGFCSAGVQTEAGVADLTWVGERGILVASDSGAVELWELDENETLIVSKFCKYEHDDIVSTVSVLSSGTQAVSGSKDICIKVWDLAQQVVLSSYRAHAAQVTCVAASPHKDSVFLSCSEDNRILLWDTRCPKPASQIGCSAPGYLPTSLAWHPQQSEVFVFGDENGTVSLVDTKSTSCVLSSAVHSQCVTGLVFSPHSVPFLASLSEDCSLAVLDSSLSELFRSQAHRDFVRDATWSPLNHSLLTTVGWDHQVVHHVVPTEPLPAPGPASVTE

Structure (SMILES)	IC50 [1] [nM]	SDMA inhibition (%) [2]
CCCc1ccc2c(c1)OCCN(C[C@H](O)CN1CCc3ccccc3C1)C2=O [Example 11, 4-[(2R)-3-(3,4-dihydro-1H-isoquinolin-2-yl)-2-hydroxy-propyl]-8-propyl-2,3-dihydro-1,4-benzoxazepin-5-one]	100 to 1000	++ (++: more than 30% and 70% or less)
O=C1c2ccc(CN3CCOCC3)cc2OCCN1C[C@H](O)CN1CCc2ccccc2C1 [Example 22, 4-[(2R)-3-(3,4-dihydro-1H-isoquinolin-2-yl)-2-hydroxy-propyl]-8-(morpholinomethyl)-2,3-dihydro-1,4-benzoxazepin-5-one]	1 to 100	+++ (+++: more than 70%)
CN1CCC(Oc2ccc3c(c2)OCCN(C[C@H](O)CN2CCc4ccccc4C2)C3=O)CC1 [Example 87, 4-[(2R)-3-(3,4-dihydro-1H-isoquinolin-2-yl)-2-hydroxy-propyl]-8-[(1-methyl-4-piperidyl)oxy]-2,3-dihydro-1,4-benzoxazepin-5-one]	1 to 100	+++ (+++: more than 70%)
CCN1CCC(Oc2ccc3c(c2)OCCN(C[C@H](O)CN2CCc4ccccc4C2)C3=O)CC1 [Example 88, 4-[(2R)-3-(3,4-dihydro-1H-isoquinolin-2-yl)-2-hydroxy-propyl]-8-[(1-ethyl-4-piperidyl)oxy]-2,3-dihydro-1,4-benzoxazepin-5-one]	1 to 100	+++ (+++: more than 70%)
O=C1c2ccc(OC3CCN(C4COC4)CC3)cc2OCCN1C[C@H](O)CN1CCc2ccccc2C1 [Example 92, 4-[(2R)-3-(3,4-dihydro-1H-isoquinolin-2-yl)-2-hydroxy-propyl]-8-[[1-(oxetan-3-yl)-4-piperidyl]oxy]-2,3-dihydro-1,4-benzoxazepin-5-one]	100 to 1000	+++ (+++: more than 70%)
CN1CCC(Oc2ccc3c(c2)OC(C)(C)CN(C[C@H](O)CN2CCc4ccccc4C2)C3=O)CC1 [Example 112, 4-[(2R)-3-(3,4-dihydro-1H-isoquinolin-2-yl)-2-hydroxy-propyl]-2,2-dimethyl-8-[(1-methyl-4-piperidyl)oxy]-3H-1,4-benzoxazepin-5-one]	100 to 1000	+++ (+++: more than 70%)

Continued, in another order:

IC50 [1] [nM]	Structure (SMILES)	SDMA inhibition (%) [2]
1 to 100	O=C1c2ccc(Br)cc2CCCN1C[C@H](O)CN1CCc2ccccc2C1 [Example 155, 7-bromo-2-[(2R)-3-(3,4-dihydro-1H-isoquinolin-2-yl)-2-hydroxy-propyl]-4,5-dihydro-3H-2-benzazepin-1-one]	+ (+: 30% or less)
1 to 100	CN1CCN(C[C@H](O)CN2CCc3ccccc3C2)C(=O)c2ccc(Br)cc21 [Example 156, 8-bromo-4-[(2R)-3-(3,4-dihydro-1H-isoquinolin-2-yl)-2-hydroxy-propyl]-1-methyl-2,3-dihydro-1,4-benzodiazepin-5-one]	++ (++: more than 30% and 70% or less)
100 to 1000	COCCN1CC[C@@H](Oc2ccc3c(c2)O[C@H](C)CN(C[C@H](O)CN2CCc4ccccc4C2)C3=O)C1 [Example 274, (2R)-4-[(2R)-3-(3,4-dihydro-1H-isoquinolin-2-yl)-2-hydroxy-propyl]-8-[(3R)-1-(2-methoxyethyl)pyrrolidin-3-yl]oxy-2-methyl-2,3-dihydro-1,4-benzoxazepin-5-one]	
